The values below come from patent US8633245B2, “PAI-1 inhibitor” (Institute of Medicinal Molecular Design, Inc., priority 2008, dated 2014).

For one experiment, the system named is thrombus in AV shunt. Description: Test Example 5: anti-thrombotic activity (rat AV shunt model). It counts as in vivo. As to conditions: mean ± S.E., n=5, vehicle 72.7 ± 2.7. Here is the method:
AV shunt model using 7-week old male Crlj: CD (SD) rats were prepared, and anti thrombotic activities when the compounds according to the present invention were administered orally were examined.
Required amount of the test compounds were weighed and suspended by adding 0.5% CMC (carboxymethylcellulose)-Na solution little by little, and the solutions (10 mg/kg or 30 mg/kg solution) were prepared so that their final concentration became 2 mg/ml or 6 mg/ml using a graduated cylinder. 5 ml was prepared for 1 course.
To 7-week old Crlj: CD (SD) male rats, 5 ml/kg of vehicle (0.5% CMC-Na solution) or 5 ml/kg of the administering solution of the test compound (10 mg/kg or 30 mg/kg) were administered orally for 4 days. The administration on the 4th day was carried out about 1 hour before the following perfusion start.
On the connected part where the silk thread was through, parafilm was wrapped around to avoid blood leakage.
Rats were anesthetized with pentobarbital (50 mg/kg; intraperitoneally). Saline was filled in the above catheter, and each of the ends of the catheter was inserted in right carotid artery and left carotid artery, respectively, and blood was circulated. 30 minutes later, the catheter was pinched with forceps to stop blood flow, and tube parts where the silk thread was through were cut and removed. The silk thread was carefully removed from the tubes, remaining wet weight was weighed after removing the liquid phase with filter paper, and further subtraction of the weight of the silk thread, gave the thrombus weight.
For the thrombus weight in each group, an average value±standard error (S.E.) was calculated. For the significance test between the vehicle administered group and the compound according to the present invention administered group, Dunnett's multiple comparison was carried out (significance level 5%). For the test, the SAS System Release 8.2 (TS2M0) for Windows (Registered Trademark) (SAS Institute Inc.) and its cooperative system EXSAS Ver. 7.10 (Arm Systex Co. Ltd.) were employed.

Experiment [1] has as its target T1, recombinant human PAI-1 (Homo sapiens, UniProt P05121).
T1 construct: purchased Molecular Innovations, Inc
Description: Test Example 1: human PAI-1 inhibitory activity (tPA fluorogenic substrate, pH 7.5 Tris buffer). Format: biochemical. As to conditions: Tris buffer. The protocol: 50 mM Tris, 150 mM NaCl, 10 μg/ml BSA, 0.01% Tween80 (SIGMA-ALDRICH Corporation)

For experiment [2], the target named is T1, recombinant human PAI-1. Description: Test Example 4: human PAI-1 inhibitory activity (amount of PAI-1 bound to plate-coated tPA, ELISA). Format: binding. As to conditions: read-out: Inhibition Rate of PAI-1 Activity (%). Here is the method:
100 μl of tPA solution, where one-chain recombinant tPA (hereinafter referred to as tPA; American diagnostica, inc.) had been diluted with Buffer A to achieve a concentration of 10 μg/ml, was added to each well of a 96-well plate (Nunc Maxisorp), and the plate was incubated for one night at 4° C. to be coated with tPA. Then, after suction of tPA solution from the 96-well plate, the plate was rinsed successively with Buffer A and Buffer B.
To Buffer B, solutions of the compound according to the present invention dissolved with DMSO (final DMSO concentration: 0.2%) and recombinant human PAI-1 (Molecular Innovations, Inc.) were added. The mixtures were blended so that the final concentrations would be 0.1 to 3.0 μM and 50 ng/ml respectively, and were incubated for 15 minutes on ice. These mixed solutions were added to the rinsed 96-well plate at 100 μl/well, and incubated for 60 minutes at room temperature. To prepare a calibration curve, PAI-1 solutions without the compound according to the present invention (solutions where the final concentrations being 100, 50, 25, 12.5, 6.25, 3.13, or 1.56 ng/ml PAI-1) were added at 100 μl/well, and the plate was incubated for 60 minutes at room temperature, as standard.
After incubation, the reaction mixture was removed by suction, and each well was rinsed with Wash Buffer. Next, anti-human PAI-1 monoclonal antibody (PROGEN Inc.) diluted with Buffer C to be 3.0 μg/ml was added to the 96-well plate at 100 μl/well, and the plate was incubated for 1 hour at room temperature. After rinsing each well with Wash Buffer, alkaline phosphatase-labeled goat anti-mouse IgG (H+L) (Jackson ImmunoResearch, Inc.) diluted with Buffer D to be 0.12 μg/ml was added at 100 μl/well, and the plate was incubated for 1 hour at room temperature. After rinsing each well with Wash Buffer, 1.0 mg/ml p-Nitrophenyl Phosphate (SIGMA) was added to the 96-well plate at 100 μl/well to start the reaction. After 30 to 60 minutes, 25 μl of 0.5 N NaOH was added to stop the reaction, and the absorbance was measured at 405 nm using a multiplate reader (GENios; TECAN G.M.B.H.). Based on the calibration curve prepared from the standard wells, amounts of PAI-1 bound to tPA in the wells that had been treated with the compound according to the present invention were calculated, and the PAI-1 inhibition rates by the compounds according to the present invention were obtained by the following equation. [PAI-1 Inhibition Rate (%)]=[1−(amount of PAI-1 bound to tPA on the well by treatment with the compound according to the present invention)/(amount of PAI-1 bound to tPA on the well by treatment with PAI-1 solution not including the compound according to the present invention (solution having the final concentration of 50 ng/ml PAI-1)]×100

Experiment [3] has as its target T1, recombinant human PAI-1. Description: Test Example 2: human PAI-1 inhibitory activity (tPA fluorogenic substrate, pH 7.4 HEPES buffer). It counts as biochemical. As to conditions: for IC50: human PAI-1, calculated from the inhibition rates. The protocol: 0.1 M HEPES, 0.1 M NaCl. 1 mM EDTA. 0.1% Polyethylene glycol 8,000 (Hampton Research Corporation),
2 mM Dimethyldecylphoshine oxide [Apo-10] (Fluka Corporation)

Another experiment has as its target T2, recombinant rat PAI-1 (Rattus norvegicus, UniProt P20961).
T2 construct: purchased Molecular Innovations, Inc
T2 sequence (P20961 24-402): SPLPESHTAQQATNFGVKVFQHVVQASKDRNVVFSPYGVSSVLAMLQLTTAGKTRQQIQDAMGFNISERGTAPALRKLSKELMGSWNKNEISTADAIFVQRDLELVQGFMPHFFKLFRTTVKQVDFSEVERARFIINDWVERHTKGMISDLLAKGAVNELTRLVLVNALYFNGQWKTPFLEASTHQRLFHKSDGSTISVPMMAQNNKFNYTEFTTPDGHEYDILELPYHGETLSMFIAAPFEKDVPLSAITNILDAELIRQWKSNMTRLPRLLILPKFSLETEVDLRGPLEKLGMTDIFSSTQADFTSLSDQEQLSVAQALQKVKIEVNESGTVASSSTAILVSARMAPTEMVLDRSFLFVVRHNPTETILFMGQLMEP
The experiment in a line: Test Example 3: rat PAI-1 inhibitory activity (as Test Example 2 with rat PAI-1). It counts as biochemical. As to conditions: rat PAI-1; for IC50: calculated from the inhibition rates.

T1 sequence (P05121 24-402): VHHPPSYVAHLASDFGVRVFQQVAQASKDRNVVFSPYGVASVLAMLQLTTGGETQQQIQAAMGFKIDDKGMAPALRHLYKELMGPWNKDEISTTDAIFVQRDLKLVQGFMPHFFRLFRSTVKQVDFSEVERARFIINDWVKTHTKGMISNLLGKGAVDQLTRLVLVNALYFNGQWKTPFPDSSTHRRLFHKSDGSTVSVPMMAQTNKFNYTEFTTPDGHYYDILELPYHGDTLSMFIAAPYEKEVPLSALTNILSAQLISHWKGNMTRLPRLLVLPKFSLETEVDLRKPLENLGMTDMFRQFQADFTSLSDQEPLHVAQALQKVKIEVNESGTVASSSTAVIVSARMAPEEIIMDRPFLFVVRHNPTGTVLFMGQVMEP
Description for recombinant rat PAI-1: To this solution, 6 μl of 80 nM recombinant human PAI-1 (Molecular Innovations, Inc.) solution prepared with Tris buffer was added, and the plate was incubated for 5 minutes at room temperature. Furthermore, 30 μl of 800 IU/ml two-chain tPA (Activity Standard; American diagnostica, inc.) prepared with Tris buffer was added, and the mixed solution was incubated for 15 minutes at room temperature. Then, 30 μl of 400 μM fluorogenic substrate (Pyr-Gly-Arg-MCA; Peptide Institute, Inc.) for tPA prepared with Tris buffer was added and reacted for 30 minutes at room temperature.

`CC(C)(C)c1ccc(COc2ccc(-c3ccc(OC(F)(F)F)cc3)cc2CCC(=O)O)cc1` [Compound 5]: in the experiment with thrombus in AV shunt (10 mg/kg/day orally for 4 days), the “Thrombus Weight” value was determined as 57.5 ± 5.0 mg.

In the case of `CN(C(=O)C(=O)O)c1cc(-c2ccc(OC(F)(F)F)cc2)ccc1OCc1ccc(C(C)(C)C)cc1` [Compound 17], the “Thrombus Weight” value with thrombus in AV shunt (30 mg/kg/day orally for 4 days) is recorded as 60.4 ± 3.8 mg. Further, the “Inhibition Rate of PAI-1 Activity (%)” value was 37% on recombinant human PAI-1 [1] (Compound Concentration 5 μM), 67% at recombinant human PAI-1 [1] (Compound Concentration 10 μM) and 97% at recombinant human PAI-1 [1] (Compound Concentration 25 μM).

In the case of `O=C(O)CCc1cc(-c2ccc(OC(F)(F)F)cc2)ccc1OCCCCc1ccccc1` [Compound 102], the inhibition at 1 µM at recombinant human PAI-1 [2] is 0%. For the same compound, the IC50 on recombinant human PAI-1 [3] is 1320 nM; on recombinant rat PAI-1, 2750 nM.

Turning to `CC(C)(C)c1ccc(CN(C(=O)C(=O)O)c2ccc(-c3ccc(OC(F)(F)F)cc3)cc2)cc1` [Compound 129], the “Thrombus Weight” value with thrombus in AV shunt (10 mg/kg/day orally for 4 days) stood at 56.7 ± 3.8 mg.

Turning to `CCN(CC)c1ccc(N(Cc2ccc(C(C)(C)C)cc2)C(=O)C(=O)O)c(-c2ccc(OC(F)(F)F)cc2)c1` [Compound 208], at recombinant human PAI-1 [2], the inhibition at 1 µM is 13%.

For `Cc1cc(N(C)C)c(-c2ccc(OC(F)(F)F)cc2)cc1N(Cc1ccc(C(C)(C)C)cc1)C(=O)C(=O)O` [Compound 215], the “Inhibition Rate of PAI-1 Activity (%)” value at recombinant human PAI-1 [3] (Compound Concentration 0.1 μM, HEPES buffer) was determined as 7%; at recombinant human PAI-1 [3] (Compound Concentration 0.3 μM, HEPES buffer), 18%; on recombinant human PAI-1 [3] (Compound Concentration 1 μM, HEPES buffer), 54%; at recombinant human PAI-1 [3] (Compound Concentration 3 μM, HEPES buffer) it was 95%; at recombinant rat PAI-1 (compound concentration 0.3 μM), 2%; on recombinant rat PAI-1 (compound concentration 1 μM) it was 16%. In addition, the “Inhibition Rate of PAI-1 Activity (%)” value at recombinant rat PAI-1 (compound concentration 3 μM) came to 84%; on recombinant rat PAI-1 (compound concentration 10 μM), 97%; on recombinant human PAI-1 [1] (Compound Concentration 5 μM), 90%; at recombinant human PAI-1 [1] (Compound Concentration 10 μM), 92%.

`CCC(CC)Oc1ccc(-c2ccc(OC(F)(F)F)cc2)cc1N(CCCc1ccccc1)C(=O)C(=O)O` [Compound 233]: the inhibition at 0.3 µM at recombinant human PAI-1 [2] (Compound Concentration 0.3 μM) stood at 13%; at recombinant human PAI-1 [3] (Compound Concentration 0.3 μM, HEPES buffer, read-out: Inhibition Rate of PAI-1 Activity (%)) it was 9%; on recombinant rat PAI-1 (compound concentration 0.3 μM, read-out: Inhibition Rate of PAI-1 Activity (%)) it was 4%. The inhibition at 1 µM is 28% at recombinant human PAI-1 [2] (Compound Concentration 1 μM); 55% on recombinant human PAI-1 [3] (Compound Concentration 1 μM, HEPES buffer, read-out: Inhibition Rate of PAI-1 Activity (%)); 20% on recombinant rat PAI-1 (compound concentration 1 μM, read-out: Inhibition Rate of PAI-1 Activity (%)). The inhibition at 3 µM on recombinant human PAI-1 [2] (Compound Concentration 3 μM) came to 50%; on recombinant human PAI-1 [3] (Compound Concentration 3 μM, HEPES buffer, read-out: Inhibition Rate of PAI-1 Activity (%)), 97%; on recombinant rat PAI-1 (compound concentration 3 μM, read-out: Inhibition Rate of PAI-1 Activity (%)), 93%. Moreover, the inhibition at 0.1 µM at recombinant human PAI-1 [3] (Compound Concentration 0.1 μM, HEPES buffer, read-out: Inhibition Rate of PAI-1 Activity (%)) amounted to 0%. Further, the IC50 at recombinant human PAI-1 [3] is 900 nM; on recombinant rat PAI-1 it was 1460 nM. Besides, the inhibition at 10 µM is more than 99% on recombinant rat PAI-1 (compound concentration 10 μM, read-out: Inhibition Rate of PAI-1 Activity (%)) and 93% at recombinant human PAI-1 [1] (Compound Concentration 10 μM, read-out: Inhibition Rate of PAI-1 Activity (%)). For the same compound, the inhibition at […] at recombinant human PAI-1 [1] (Compound Concentration 2.5 μM, read-out: Inhibition Rate of PAI-1 Activity (%)) is 49%. Moreover, on recombinant human PAI-1 [1] (Compound Concentration 5 μM, read-out: Inhibition Rate of PAI-1 Activity (%)), the inhibition at 5 µM was found to be 78%.
